Laboratory results reported in US20200247849A1, “PEPTIDE AGONISTS AND ANTAGONISTS OF TLR4 ACTIVATION” (PEPTICOM LTD, priority 2016, published 2020).

What was measured:
Format in all cases: cell-based
[1] = tested on: Raw 264.7 cells; experiment: Raw cells activation, FACS of activation markers CD80, CD40, CD86, MHC-II; settings: 24 h and 48 h, compared to negative control and other peptides
Protocol: Additional testing was carried out to verify the activation levels if the peptides using expression level of activation markers. Raw cells were activated using the peptides of SEQ ID Nos. 1, 4 and 5 and a control peptide. The analysis of the activation level was done by examining the expression level of few activation markers. In order to verify the obtained results, two repeats were done. Standard Raw cells activation and FACS staining protocol were carried out.
The following describes the experimental design in detail. 5-7.5X10^6 Raw 264.7 cells were seeded in 6-well plates 24 h prior to the stimulation in 3ml/well of DMEM containing 4 mmol/L glutamine and 10% heat-inactivated FCS. At the next day, cells were treated with bacterial LPS (10 or 100 ng/ml, E coli, sigma) as positive control, and with peptides SEQ ID Nos. 1, 4, 5 and the control peptide (50, 100 and 200 μM for each peptide). The volume of the incubation was 1.5 ml for each well. After 24 or 48 h (two experiments), the concentrations of nitrite were measured in the culture supernatant by the Griess assay while absorbance was read at 550 nm. Simultaneously, the cells were stained for surface receptors: CD40, CD80, CD86 and MHC-II with the appropriate antibodies (biolegend) and analysed by flow cytometry using FSC express 3 software. […]

[2] = tested on: TLR4 with MD2 or CD14 co-receptor; experiment: Reporter gene (SEAP) PAMP assay in NIH3T3 cells expressing TLR4 with MD2 or CD14 co-receptor; settings: summary of FIGS. 6A-6V; for Co-Receptor/s: co-receptor (MD2/CD14) via which the effect occurs; for Activity: type of effect (activation/inhibition) on TLR4
From the text: FIGS. 6A-6V show the dose response inhibitor/activator effects of the designed peptides using a reporter gene assay. The reporter gene assay is composed of NIH3T3 cells transfected with either MD2 or CD14 along with TLR4 and the NF-κB-inducible reporter gene Secreted Alkaline Phosphatase (SEAP) to monitor TLR4 activation (Burger-[…] al. 2010, A new cell-based innate immune receptor assay for the examination of receptor activity, ligand specificity, signaling pathways and the detection of pyrogens. […] The receptors are coupled to for the detection of inhibitory activity, cells were treated with the peptide prior to exposure to LPS and the response to LPS is measured at variable peptide doses (as labeled). The detection of cell activation was performed using the peptide alone, at variable doses, as indicated in the respective graphs. The following presents in more details the experimental procedures. Experimental setup: The cell-based Assay is performed with different NIH3T3 reporter cell lines (NIH 3T3 PRR SEAP-TLR4/CD14 or -TLR4/MD2) and the control cell line NIH 3T3 SEAP. The NIH3T3 SEAP cell line is used in order to determine the background of the alkaline phosphatase expression. It is a cell line stably transfected with only the reporter gene plasmid. For each assay a vial of the master cell bank is revitalized and seeded in a standard cell culture flask (75 cm^2 T-Flask) at day one. Cells are cultured in 20 ml culture media (DMEM supplemented with 10% FCS (heat inactivated), 50 units/ ml penicillin, 0.05 mg/ ml streptomycin and 2 mmol/ L L-glutamine). The cells are cultured at 37° C. in a 5% CO2 humidified atmosphere. At Day 1: For the PAMP Assay cells are seeded in a 96-well plate at a density of 0.3.10^5 cells/well in a final volume of 100 μl culture media (DMEM, 10% FCS (heat inactivated)). To ensure equal culture conditions the 96-well cell culture plates are placed side by side and cultivated in a humidified CO2 incubator (37° C. and 5% CO2). […] After a cultivation period of 24 h the media is removed and replaced with the respective volume of fresh media (DMEM, 0.5% FCS (heat inactivated)).The lyophilized peptides are stored in a freezer at -20° C. upon arrival. For the experiments they are dissolved in DMSO (to the highest possible concentration). Before opening the peptides are allowed to equilibrate to room temperature (in order to reduce the uptake of moisture). For each experiment the stock solution is diluted in DMEM to the appropriate working concentration. […] Sonication was also used to help dissolve the peptides. Immediately after replacing the media, the diluted peptides are applied in a serial dilution to the cells and directly after that the agonist is added to the cells. After adding peptide and […] the final volume in each well of a 96 well plate amounts 100 μl/well. The culture medium containing 0.5% FCS is used as a negative reference item. The induction is performed for 18 h at 37° C. and 5% CO2. At Day 3: To determine the final SEAP value, 50 μl of the supernatant is carefully transferred in a new 96-well plate (Greiner-F-plate) and 50 μl of the substrate (pNPP; p-nitrophenyl phosphate) is added. SEAP catalyzes the hydrolysis of pNPP to the final product para-nitrophenol (yellow) which can be detected by a photometric analysis using an UV-VIS reader at 405 nm. […] The results of FIGS. 6A-6V with respect to peptide activity are summarized in Table 1 above with respect to the type of effect of the respective peptide (activation/inhibition) and with respect to the corresponding co-receptor (MD2/CD14). Data concerning SEQ ID No. 22 with respect to co-receptor CD14 is in preparation.

[3] = molecular target: T1, TLR4/MD2 (Homo sapiens, UniProt O00206+Q9Y6Y9); experiment: Reporter gene assay, NIH3T3 cells TLR4 with MD2 co-receptor
T1 construct: expressed in transfected cells; host or cells: NIH3T3 (NIH 3T3 PRR SEAP-TLR4/MD2)
T1 sequence (O00206 24-839): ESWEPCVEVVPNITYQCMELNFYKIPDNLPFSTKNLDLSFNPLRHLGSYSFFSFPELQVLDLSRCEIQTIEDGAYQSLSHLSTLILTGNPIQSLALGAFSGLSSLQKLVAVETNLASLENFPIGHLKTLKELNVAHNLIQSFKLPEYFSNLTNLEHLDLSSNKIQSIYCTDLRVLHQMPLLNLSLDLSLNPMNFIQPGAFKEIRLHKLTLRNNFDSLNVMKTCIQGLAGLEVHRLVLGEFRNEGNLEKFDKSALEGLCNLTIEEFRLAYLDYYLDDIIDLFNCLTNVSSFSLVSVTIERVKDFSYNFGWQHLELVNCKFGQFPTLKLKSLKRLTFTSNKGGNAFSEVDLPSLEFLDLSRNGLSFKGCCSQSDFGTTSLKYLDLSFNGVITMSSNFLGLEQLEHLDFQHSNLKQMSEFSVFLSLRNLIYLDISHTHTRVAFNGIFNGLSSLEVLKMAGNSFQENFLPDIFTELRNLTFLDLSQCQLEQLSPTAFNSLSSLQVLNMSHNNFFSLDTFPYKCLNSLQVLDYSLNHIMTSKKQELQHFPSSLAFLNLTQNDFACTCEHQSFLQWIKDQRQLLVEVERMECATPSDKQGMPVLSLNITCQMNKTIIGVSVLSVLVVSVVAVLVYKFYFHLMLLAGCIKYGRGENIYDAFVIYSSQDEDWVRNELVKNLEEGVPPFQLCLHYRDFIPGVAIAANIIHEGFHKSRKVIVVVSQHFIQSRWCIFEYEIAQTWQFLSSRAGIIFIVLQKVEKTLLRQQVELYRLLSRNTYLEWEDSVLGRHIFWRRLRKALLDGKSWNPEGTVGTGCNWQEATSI
T1 sequence (Q9Y6Y9 19-160): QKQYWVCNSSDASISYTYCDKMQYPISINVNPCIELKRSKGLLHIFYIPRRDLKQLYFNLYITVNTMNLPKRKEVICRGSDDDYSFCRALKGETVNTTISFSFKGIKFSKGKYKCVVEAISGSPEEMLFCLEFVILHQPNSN
From the text: FIGS. 6A-6V present peptide activity using NIH3T3 cells that express TLR4, with either the MD2 co-receptor (top) or CD14 co-receptor (bottom), for peptides of SEQ ID Nos. 1-22, respectively, according to some embodiments of the invention. FIGS. 6A-6V show the dose response inhibitor/activator effects of the designed peptides using a reporter gene assay. The reporter gene assay is composed of NIH3T3 cells transfected with either MD2 or CD14 along with TLR4 and the NF-κB-inducible reporter gene Secreted Alkaline Phosphatase (SEAP) to monitor TLR4 activation (Burger-Kentischer et al. 2010, A new cell-based innate immune receptor assay for the examination of receptor activity, ligand specificity, signaling pathways and the detection of pyrogens. J Immunol Methods. 358(1-2): 93-103). […] The receptors are coupled to for the detection of inhibitory activity, cells were treated with the peptide prior to exposure to LPS and the response to LPS is measured at variable peptide doses (as labeled). […]
At Day 3: To determine the final SEAP value, 50 μl of the supernatant is carefully transferred in a new 96-well plate (Greiner-F-plate) and 50 μl of the substrate (pNPP; p-nitrophenyl phosphate) is added. SEAP catalyzes the hydrolysis of pNPP to the final product para-nitrophenol (yellow) which can be detected by a photometric analysis using an UV-VIS reader at 405 nm. […]

activation with respect to MD2 [3]	Substance	stimulation of raw cells (expression of activation markers) [1]	Co-Receptor/s [2]	Activity [2]
–	LAWYFGRKIKE (Inhibitor) [SEQ ID No. 11]	most promising stimulator	MD2	Inhibitor
weak activator	c[WMLGMESI] (cyclic; Activator, cyclic) [SEQ ID No. 7]	–	CD14	Activator
